From patent US8569055B2, “Identification and characterization of cancer stem cells and methods of use” (City of Hope, priority 2006, dated 2013)

Columns and labels:
Type in all cases: cell-based, human
[1] = test system: non-sorted NCI-H211, NCI-H69AR, NCI-H1417 cells; test: Cytotoxicity assay (Guava ViaCount), 5-FU, non-sorted SCLC cell lines; settings: 5-FU up to 200 μg/ml, 72 hours
Experimental: (§1) FIG. 2: Cytotoxic effect of 5-FU on non-sorted and sorted (uPAR-positive and uPAR-negative populations) derived from SCLC cell lines. (A) […] cells (H211, H69AR, H1417) were placed in wells of a 48-well plate in triplicates and incubated for 72 hr in the presence of varying concentrations of 5-FU. (B) SCLC cell lines were FACS sorted after staining with anti-uPAR antibodies and were plated at the same seeding density ([…]/well of 96-well plate) and treated with 5-FU at […] for 72 hr. Cell survival was evaluated after adding Guava ViaCount reagent and counting viable and dead cells. Only viable cells were included in data analysis, and 100% viability was defined as number of viable cells cultured in absence of 5-FU. […] The data points represent averages±SD of three independent experiments. […]
(§2) Cells were counted, placed into 96-well plates (4×10^3 cells/well, in triplicate), and treated with 5-fluorouracil (5-FU) at a final concentration of 0, 3, 10, 100, or 200 μg/ml. After incubation for 72 hours, both viable and dead cells were counted using the Guava ViaCount assay. […] Fluorescence of the dyes allows quantitative assessment of both viable and non-viable cells in suspension. […]

[2] = test system: uPAR-positive sorted NCI-H1417 cells; test: Cytotoxicity assay (Guava ViaCount), 5-FU, sorted uPAR-positive NCI-H1417; settings: uPAR-positive sorted NCI-H1417, 72 hours
Experimental: as §1, §2

[3] = test system: uPAR-positive sorted NCI-H211 cells; test: Cytotoxicity assay (Guava ViaCount), 5-FU, sorted uPAR-positive NCI-H211; settings: uPAR-positive sorted NCI-H211, 72 hours
Experimental: as §1, §2

[4] = test system: uPAR-negative NCI-H69AR cells; test: Cytotoxicity assay (Guava ViaCount), 5-FU, sorted uPAR-negative NCI-H69AR; settings: 72 hours
Experimental: as §1, §2

[5] = test system: uPAR-positive NCI-H69AR cells; test: Cytotoxicity assay (Guava ViaCount), 5-FU, sorted uPAR-positive NCI-H69AR; settings: 72 hours
Experimental: as §1, §2

NSC F3 stem cell = test: Inhibition of stem cell migration by uPAR inhibitors, in vitro migration assay; settings: inhibitor applied to lower chamber of migration assay system
Excerpt: FIG. 10: Inhibition of NSC F3 stem cell migration by anti-uPAR antibodies and bikunin.
The role of the uPA/uPAR system in stem cell migration was investigated using the immortalized neural stem cell line (NSC) HB1.F3.C1 and bone marrow-derived mesenchymal stem cells (MSC) (passages 5-6) for in vitro cell migration assays. Five cancer cell lines expressing high levels of uPAR (SK-N-AS, U251, PC-3, MDA-MB-231, and CRL-5904) and five cancer cell lines expressing low levels of uPAR (COLO-320, NB-1691, CRL-5824, CRL-5869, and MCF-7) as determined in Example 6 were utilized for this experiment.
The effect of uPAR inhibitors on stem cell migration was examined in order to verify that increased stem cell migration to tumor cells expressing high levels of uPAR was dependent on uPAR. Bikunin, a physiological inhibitor of uPA, and various anti-uPAR antibodies were applied to the lower chamber of the migration assay system.

Row | Molecule | cells killed [1] | cells killed [2] | cells killed [3] | cells killed ([4]; 10 μg/ml 5-FU) | killing effect ([4]; 200 μg/ml 5-FU) | cells killed ([5]; 10 μg/ml 5-FU) | killing effect ([5]; 200 μg/ml 5-FU) | inhibition of stem cell migration (NSC F3 stem cell)
1 | O=c1[nH]cc(F)c(=O)[nH]1 [5-FU, 5-fluorouracil] | 40-80% | 40-50% | 40-50% | 85% | approximately 100% | 30% | approximately 100% | 
2 | Bikunin: a physiological inhibitor of uPA (protein, UniProt P02760 206-352, looked up, Inter-alpha-trypsin inhibitor light chain) Inter-alpha-trypsin inhibitor …: AVLPQEEEGSGGGQLVTEVTKKEDSCQLGYSAGPCMGMTSRYFYNGTSMACETFQYGGCMGNGNNFVTEKECLQTCRTVAACNLPIVRGPCRAFIQLWAFDAVKGKCVLFPYGGCQGNGNKFYSEKECREYCGVPGDGDEELLRFSN |  |  |  |  |  |  |  | effectively inhibited stem cell migration
